The subject of data set [1] is melanoma cell line G-361. Briefly: In vitro cytotoxic activity (Calcein AM), G-361. The data set is classed as cell-based, human. To be noted: read-out: Cell line tested/IC50 (μmol/L) G-361. The source says:
(§1) Because toxic compounds negatively influence metabolic processes of cells, many standard cytotoxicity assays are based on measurement of metabolisation rate of various artificial substrates. Resulting product is then quantified, for example, by means of spectrometry. The assays can be easily modified for use in 96-well plates. For evaluation of cytotoxicity of the […] of this invention, a microtiter assay based on quantification of metabolisation of Calcein AM was used. The assay is widely used in drug screening programs and in chemosensitivity testing. In live cells, Calcein AM is enzymatically hydrolysed and accumulation of resulting calcein is manifested by green fluorescence.
(§2) The following human cell lines were used for routine screening of the compounds: normal diploid fibroblasts BJ, T-lymphoblastic leukemia cell line CEM, promyelocytic leukemia cell line HL-60, erytroid leukemia cell line K-562, breast carcinoma cell line MCF-7, osteosarcoma cell line HOS and melanoma cell line G-361. The cells were maintained in Nunc/Corning 80 cm^2 plastic tissue culture flasks and cultured in cell culture medium (DMEM with 5 g/l glucose, 2 mM glutamine, 100 U/ml penicillin, 100 mmg/ml streptomycin, 10% fetal calf serum and sodium bicarbonate). The cell suspensions were prepared and diluted according to the particular cell type and the expected target cell density (2.500-30.000 cells per well based on cell growth characteristics) and pipetted (80 μl) into 96-well plates. Inoculates were allowed a pre-incubation period of 24 hours at 37° C. and 5% CO2 for stabilization. Tested compound was added in total volume of 20 μl of water at time zero. Usually, test compound was evaluated at six 3-fold dilutions. In routine testing, the highest concentration tested was 100 μM, but it could have been adjusted because of limited solubility of a compound. All drug concentrations were tested in triplicates.
(§3) Incubations of cells with the test compounds lasted for 72 hours at 37° C., in 5% CO2 atmosphere and 100% humidity. At the end of incubation period Calcein AM in PBS was added into final concentration of 1 μg/ml. After another 1 hour of incubation fluorescence (FD) was measured with the Labsystem FIA Reader Fluoroscan Ascent (UK). Growth inhibition (GI) was estimated using the following equitation: GI=(mean FDdrug exposed wells−mean FDblank)/(mean FDcontrol wells−mean FDblank)×100%. The GI50 value, the drug concentration causing 50% reduction of Calcein AM conversion, was calculated from the obtained dose response curves.

Data set [2] has as its system detached leaves of Triticum aestivum cv. Hereward. Briefly: Membrane lipid peroxidation (MDA, TBA method) in detached wheat leaves during dark senescence. As to conditions: four days in the dark, Control 18.9 (±2.2). Type of data set: in vivo. Here is the method:
A typical symptom associated with senescence as a direct consequence of increased reactive oxygen species is lipid peroxidation. Therefore the levels of MDA, a decomposition product of lipid peroxidation, were measured in detached wheat leaves that were exposed to the prepared novel derivatives and kinetin for four days in the dark as described in Example 8. MDA levels were measured using a thiobarbituric acid (TBA) method. In detail, 100 mg of fresh plant material was homogenized by high speed shaking in a ball mill (MM301, Retsch, Germany) with 1 mL of 80% methanol. The crude extract was centrifuged at 10,000×g for 5 min, and 100 μL aliquot of supernatant was vortexed with 100 μL of 0.5% (w/v) TBA containing 0.1% (w/v) trichloroacetic acid, and the resulting solution was then incubated for 30 min at 95° C. The samples were quickly cooled on ice and recentrifuged for 5 min at 1000×g. The absorbance of supernatant was measured at 532 nm with background subtraction at 600 nm and the amount of MDA-TBA complex was calculated from the coefficient of absorbance 155 mM^−1cm^−1.
Seeds of winter wheat, Triticum aestivum cv. Hereward, were washed under running water for 24 hours and then sown on vermiculite soaked with Knop's solution. They were placed in the grown chamber at 25° C. with a 16/8 hours light period at […]. After 7 days, the first leaf was fully developed and the second leaf had started to grow. A tip section of the first leaf, approximately 35 mm long, was removed from 5 seedlings and trimmed slightly to a combined weight of 100 mg. The basal ends of the five leaf tips were placed in the wells of a microtiter polystyrene plate containing […] of a cytokinin solution each. The entire plate was inserted into a plastic box lined with paper tissues soaked in distilled water to prevent leaf sections from drying out. After 96 hours incubation in the dark at 25° C., the leaves were removed and chlorophyll extracted by heating at 80 C for 10 min in 5 ml of 80% ethanol (v/v). The sample volume was then restored to 5 ml by the addition of 80% ethanol (v/v). The absorbance of the extract was recorded at 665 nm. In addition, chlorophyll extracts from fresh leaves and leaf tips incubated in deionized water were measured. From the obtained data, the concentration with highest activity was selected for each compound tested. Relative activity of the compound at this concentration was calculated (see Table 6 below). The activity obtained for 10^−4 M kinetin (Kin) was set as 100%. The values shown are means of five replicates and the whole experiment was repeated twice.

Data set [3] relates to breast carcinoma cell line MCF-7. Briefly: In vitro cytotoxic activity (Calcein AM), MCF-7. To be noted: read-out: Cell line tested/IC50 (μmol/L) MCF7. The data set is classed as cell-based, human.
Description: as §1, §2, §3

In data set [4] the test system is erytroid leukemia cell line K-562. Briefly: In vitro cytotoxic activity (Calcein AM), K-562. The data set is classed as cell-based, human. As to conditions: read-out: Cell line tested/IC50 (μmol/L) K-562.
Description: as §1, §2, §3

Data set [5] concerns osteosarcoma cell line HOS. Nature of the data set: In vitro cytotoxic activity (Calcein AM), HOS. The data set is classed as cell-based, human. As to conditions: 72 hours, read-out: Cell line tested/IC50 (μmol/L) HOS.
Description: as §1, §2, §3

Data set [6] has as its system cytokinin-dependent tobacco callus Nicotiana tabacum L. cv. Wisconsin 38. Briefly: Plant cell division: growth of cytokinin-dependent tobacco callus. The data set is classed as cell-based. As to conditions: for Activity (%); (s.d.): relative activity at concentration with highest activity, 10^−6 M kinetin set at 100%; for Concentration with highest activity (mol/l): tobacco callus fresh weight increase after four weeks, tested 10^−8 M to 10^−4 M.

The subject of data set [7] is Human diploid fibroblast BJ. Briefly: In vitro cytotoxic activity (MTT). The data set is classed as cell-based. To be noted: 72 hours incubation; concentration causing 20% decrease in mitochondrial dehydrogenase activity. How it is done:
MTT (metabolic tetrazolium toxicity) assay is a standard colorimetric assay for evaluation of cytotoxicity. Mitochondrial dehydrogenase activity converts yellow MTT into violet formazan which is measured by means of spectrometry.
Human diploid fibroblast BJ (passage 18-22) were seeded into 96-well plate (5.000 cells per well). After 6 hours cultivation medium (DMEM with 5 g/l glucose, 2 mM glutamine, 100 U/ml penicillin, 100 mmg/ml streptomycin, 10% fetal calf serum and sodium bicarbonate) was replaced with the cultivation medium containing test compounds in concentration range of 0-200 µM. Highest concentration was adjusted if the solubility of the compound was limiting. Every concentration was tested in pentaplicate. MTT was added to the cells after 72 hours incubation (final concentration 0.5 mg/ml) and incubation continued for another 3 hours. MTT was solubilised by DMSO and absorbance at 570 nm was measured. Growth inhibition (GI) was estimated using the following equitation: GI=(mean A drug exposed wells−mean Ablank/mean Acontrol wells−mean Ablank)×100%. The GI20 value, the drug concentration causing 20% decrease in mitochondrial dehydrogenase activity, was calculated from the obtained dose response curves.

Data set [8] has as its system normal diploid fibroblasts BJ. Briefly: In vitro cytotoxic activity (Calcein AM), BJ. The data set is classed as cell-based, human. To be noted: 72 hours, read-out: Cell line tested/IC50 (μmol/L) BJ.
Description: as §1, §2, §3

In data set [9] the test system is T-lymphoblastic leukemia cell line CEM. Briefly: In vitro cytotoxic activity (Calcein AM), CEM. Type of data set: cell-based, human. As to conditions: 72 hours, read-out: Cell line tested/IC50 (μmol/L) CEM.
Description: as §1, §2, §3

Data set [10] has as its system excised wheat leaf tips (Triticum aestivum cv. Hereward). Nature of the data set: Senescence inhibition on winter wheat leaf segments (retention of chlorophyll). The data set is classed as in vivo. As to conditions: 10^−4 mol/L; 96 hours in the dark; activity of kinetin set at 100%. Put shortly: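 First-leaf tips from 7-day-old wheat seedlings stood with their bases in test solution for 96 h in the dark at 25° C. Chlorophyll was then extracted in hot 80% ethanol and read at 665 nm. Activity at each compound's best concentration is relative to 10^−4 M kinetin (100%), as means of five replicates.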

These results are taken from patent US10093675B2, “6,8-disubstituted-9-(heterocyclyl)purines, compositions containing these derivatives and their use in cosmetic and medicinal applications” (USTAV EXPERIMENTALNI BOTANIKY AV CR, V.V.I., priority 2014, dated 2018).

pIC50: −log10 of the molar value. Read-outs that look alike come from different tables or passages of the source. A value given as a limit tells only on which side of the number the result lay.

With `C/C(=C\CNc1ncnc2c1nc(Cl)n2C1CCCCO1)CO` (centres unmarked) [Compound 5, (E)-8-Chloro-6-(4-hydroxy-3-methylbut-2-en-1-ylamino)-9-(tetrahydropyran-2-yl)-9H-purine], the pIC50 was below 4.30 in [1] (Homo sapiens, G-361, 72 hours); below 4.30 in data set [3] (Homo sapiens, MCF7, 72 hours); below 4.30 in data set [4] (Homo sapiens, K562, 72 hours); below 4.30 in data set [5] (Homo sapiens); below 4.30 in data set [8] (Homo sapiens, Fibroblast); below 4.30 in [9] (Homo sapiens). Besides, in [2], the “MDA (nmol/g FW)” value is reported as 13.2 (±1.5) nmol/g FW. Also, in data set [6], the “Activity (%); (s.d.)” value is reported as 124 (±6) %. Besides, the “GI20” value in [7] was above 100 µM. The “Activity (%) (s.d.), retention of chlorophyll” value (“Activity (%) (s.d.), retention” for short) in [10] is 118 (±5) %.

On to `COc1cccc(CNc2ncnc3c2nc(Cl)n3C2CCCCO2)c1` (centres unmarked) [Compound 8], for which the pIC50 in data set [1] (72 hours), in data set [3] (72 hours), in data set [4] (72 hours), in data set [5], in data set [8] and in data set [9] was below 4.00 throughout. Also, the “Activity (%); (s.d.)” value in data set [6] is 119 (±7) %. The “Concentration with highest activity (mol/l)” value (“Concentration” for short) in data set [6] was 10^−6-10^−4 mol/l. Further, in data set [7], the “GI20” value is above 200 µM. Further, the “Activity (%) (s.d.), retention” value in [10] is 125 (±6) %.

Take `Oc1cccc(CNc2ncnc3c2nc(Cl)n3C2CCCCO2)c1` (centres unmarked) [Compound 9]: the pIC50 in data set [1] (72 hours), in data set [3] (72 hours), in [4] (72 hours), in data set [5], in data set [8] and in data set [9] was below 4.30 in each case. Further, the “MDA (nmol/g FW)” value in data set [2] is 12.4 (±1.3) nmol/g FW. In addition, the “Activity (%); (s.d.)” value in data set [6] is 108 (±3) %. For the same molecule, the “Concentration” value in data set [6] was 10^−6-10^−4 mol/l. Also, the “GI20” value in [7] is above 100 µM. The “Activity (%) (s.d.), retention” value in data set [10] is given as 115 (±4) %.

`COc1cccc(CNc2ncnc3c2nc(Br)n3C2CCCCO2)c1` (centres unmarked) [Compound 28]: the pIC50 in [1] (72 hours), in data set [3] (72 hours), in [4] (72 hours), in data set [5], in [8] and in data set [9] was below 4.30 each time. The “Activity (%); (s.d.)” value in [6] is reported as 107 (±2) %. For the same molecule, the “Concentration” value in [6] is given as 10^−6-10^−4 mol/l. In data set [7], the “GI20” value is above 100 µM. Moreover, the “Activity (%) (s.d.), retention” value in data set [10] is on record as 126 (±7) %.

Turning to `Oc1cccc(CNc2ncnc3c2nc(Br)n3C2CCCCO2)c1` (centres unmarked) [Compound 29], the pIC50 in data set [1] (72 hours), in data set [3] (72 hours), in data set [4] (72 hours), in data set [5], in data set [8] and in [9] was below 4.30 in each case. The “MDA (nmol/g FW)” value in [2] is 12.3 (±1.4) nmol/g FW. Also, the “Activity (%); (s.d.)” value in [6] is recorded as 112 (±3) %. Also, the “Concentration” value in [6] is on record as 10^−6-10^−4 mol/l. For the same molecule, the “GI20” value in [7] was above 100 µM. Besides, the “Activity (%) (s.d.), retention” value in [10] is recorded as 117 (±2) %.

For the molecule `COc1nc2c(NCc3ccco3)ncnc2n1C1CCCO1` (centres unmarked) [Compound 206], the pIC50 in data set [1] (72 hours), in [3] (72 hours), in [4] (72 hours), in [5], in data set [8] and in [9] was below 4.30 each time. Besides, in data set [2], the “MDA (nmol/g FW)” value was 10.5 (±0.4) nmol/g FW. In addition, in [6], the “Activity (%); (s.d.)” value is recorded as 110 (±3) %. Besides, in data set [6], the “Concentration” value is 10^−6-10^−4 mol/l. Also, the “GI20” value in [7] is above 100 µM.
